# Measured values taken from PMC7587356, “High-Throughput Screening for Inhibitors of the SARS-CoV-2 Protease Using a FRET-Biosensor” (Molecules, 2020).
# Where a name gives a salt, the structure may show the parent alone. Read-outs that look alike come from different tables or passages of the source.
# Molecular target: SARS-CoV-2 3CLpro (Severe acute respiratory syndrome coronavirus 2, UniProt P0DTD1)
# Test: biochemical
# Format: biochemical
# Design: Replicate_1 / Replicate_2 / mean / mean (LOPAC_screen_w_protease): unit not given here
# Conditions: for inhibition at 5 µM: 4 h
# [1] = sheet LOPAC_screen_w_protease, primary screen at 5 µM, mean of two replicates
# [2] = sheet LOPAC_screen_w_protease, primary screen at 5 µM, replicate 1
# [3] = sheet LOPAC_screen_w_protease, primary screen at 5 µM, replicate 2
# [4] = sheet LOPAC_screen_w_protease, primary screen with protease, compound at 5 µM, mean of two replicates, read-out: mean
# [5] = sheet LOPAC_screen_w_protease, primary screen with protease, compound at 5 µM, replicate 1, read-out: Replicate_1
# [6] = sheet LOPAC_screen_w_protease, primary screen with protease, compound at 5 µM, replicate 2, read-out: Replicate_2
# [7] = sheet LOPAC_screen_w_protease, primary screen at 5 µM, mean of two replicates, read-out: mean (LOPAC screen with protease)
# [8] = sheet LOPAC_screen_w_protease, primary screen at 5 µM, replicate 1, read-out: Replicate_1 (LOPAC screen with protease)
# [9] = sheet LOPAC_screen_w_protease, primary screen at 5 µM, replicate 2, read-out: Replicate_2 (LOPAC screen with protease)
# [10] = LOPAC1280 primary screen with protease, 5 µM compound, replicate 1, read-out: Replicate_1 (LOPAC_screen_w_protease)
# [11] = LOPAC1280 primary screen with protease, 5 µM compound, replicate 2, read-out: Replicate_2 (LOPAC_screen_w_protease)
# [12] = LOPAC1280 primary screen with protease, 5 µM compound, mean of two replicates
# [13] = sheet LOPAC_screen_w_protease, primary screen with protease, compound at 5 µM, mean of two replicates
# [14] = sheet LOPAC_screen_w_protease, primary screen with protease, compound at 5 µM, replicate 1
# [15] = sheet LOPAC_screen_w_protease, primary screen with protease, compound at 5 µM, replicate 2
# [16] = LOPAC1280 primary screen with protease, 5 µM compound, replicate 1
# [17] = LOPAC1280 primary screen with protease, 5 µM compound, replicate 2
# [18] = LOPAC1280 primary screen with protease, 5 µM compound, mean of the two replicates
# [19] = sheet LOPAC_screen_w_protease, primary screen with protease, 5 µM, mean of two replicates
# [20] = sheet LOPAC_screen_w_protease, primary screen with protease, 5 µM, replicate 1
# [21] = sheet LOPAC_screen_w_protease, primary screen with protease, 5 µM, replicate 2
# [22] = sheet LOPAC_screen_w_protease, LOPAC1280 primary screen with protease, 5 µM compound, mean of the two replicates
# [23] = sheet LOPAC_screen_w_protease, LOPAC1280 primary screen with protease, 5 µM compound, replicate 1
# [24] = sheet LOPAC_screen_w_protease, LOPAC1280 primary screen with protease, 5 µM compound, replicate 2
# [25] = sheet LOPAC_screen_w_protease, primary screen with protease, mean of two replicates
# [26] = sheet LOPAC_screen_w_protease, primary screen with protease, replicate 1
# [27] = sheet LOPAC_screen_w_protease, primary screen with protease, replicate 2
# [28] = sheet LOPAC_screen_w_protease, LOPAC1280 primary screen at 5 µM, with protease, mean of the two replicates
# [29] = sheet LOPAC_screen_w_protease, LOPAC1280 primary screen at 5 µM, with protease, replicate 1
# [30] = sheet LOPAC_screen_w_protease, LOPAC1280 primary screen at 5 µM, with protease, replicate 2
structure (smiles),measurement,setting,value
N.S=C(S)N1CCCC1 [Ammonium pyrrolidinedithiocarbamate],mean (LOPAC screen with protease),[1],72.0091
same,Replicate_1 (LOPAC screen with protease),[2],73.369
same,Replicate_2 (LOPAC screen with protease),[3],70.6492
N=C(N)NC(=O)Cc1c(Cl)cccc1Cl [Guanfacine hydrochloride],inhibition at 5 µM,[4],2.62%
same,inhibition at 5 µM,[5],3.74%
same,inhibition at 5 µM,[6],1.51%
CC[N+](CC)(CC)CCOc1cccc(OCC[N+](CC)(CC)CC)c1OCC[N+](CC)(CC)CC [Gallamine triethiodide],inhibition at 5 µM,[7],11.3%
same,inhibition at 5 µM,[8],12.1%
same,inhibition at 5 µM,[9],10.6%
O=C(CCCN1CCC(O)(c2cccc(C(F)(F)F)c2)CC1)c1ccc(F)cc1 [Trifluperidol hydrochloride],inhibition at 5 µM,[10],-0.00744%
same,inhibition at 5 µM,[11],3.06%
same,mean (LOPAC_screen_w_protease),[12],1.525
CC[C@@H](CO)NC(=O)[C@@H]1C=C2c3cccc4[nH]cc(c34)C[C@H]2N(C)C1 [Methylergonovine maleate],inhibition at 5 µM,read-out: Replicate_1,1.27%
same,inhibition at 5 µM,read-out: Replicate_2,0.625%
same,inhibition at 5 µM,read-out: mean,0.949%
O=C(OCCN1CCCCC1)c1c[nH]c2ccccc12 [SB 203186],mean,[13],2.639
same,Replicate_1,[14],2.947
same,Replicate_2,[15],2.331
CCCCC/C=C\C[C@@H](O)/C=C/c1cccc(C[C@@H](O)CCCCO)n1 [U-75302],mean (LOPAC_screen_w_protease),[12],1.3528
same,Replicate_1 (LOPAC_screen_w_protease),[16],0.07831
same,Replicate_2 (LOPAC_screen_w_protease),[17],2.627
CCn1nc(C(=O)O)c(=O)c2cc3c(cc21)OCO3 [Cinoxacin],inhibition at 5 µM,[10],-0.0118%
same,inhibition at 5 µM,[11],4.09%
same,mean (LOPAC_screen_w_protease),[18],2.037
CCc1ccccc1OC[C@@H](O)CN[C@H]1CCCc2ccccc21.O=C(O)C(=O)O [SR 59230A oxalate],mean,[19],-0.0002221
same,Replicate_1,[20],1.088
same,Replicate_2,[21],-1.089
OCCN1CCN(CCCN2c3ccccc3Sc3ccc(C(F)(F)F)cc32)CC1 [Fluphenazine dihydrochloride],inhibition at 5 µM,[10],4.18%
same,inhibition at 5 µM,[11],-0.136%
same,mean (LOPAC_screen_w_protease),[18],2.023
CC(=O)NCCc1ccc(O)c(O)c1.O [N-Acetyldopamine monohydrate],mean (LOPAC screen with protease),[1],81.0563
same,Replicate_1 (LOPAC screen with protease),[2],83.9163
same,Replicate_2 (LOPAC screen with protease),[3],78.1962
NCCCS(=O)(=O)O.[Na] [3-Amino-1-propanesulfonic acid sodium],mean,[22],5.742
same,Replicate_1,[23],6.514
same,Replicate_2,[24],4.97
CN1CCC(=C2c3ccccc3C=Cc3ccccc32)CC1 [Cyproheptadine hydrochloride],inhibition at 5 µM,[10],4.15%
same,inhibition at 5 µM,[11],0.0977%
same,mean (LOPAC_screen_w_protease),[18],2.126
CCOC(=O)C1=C(C)NC(=S)NC1c1cccc(O)c1 (stereo not drawn) [Monastrol],inhibition at 5 µM,"sheet LOPAC_screen_w_protease, LOPAC1280 primary screen with protease, 5 µM compound, mean of the two replicates, read-out: mean",6.04%
same,inhibition at 5 µM,"sheet LOPAC_screen_w_protease, LOPAC1280 primary screen with protease, 5 µM compound, replicate 1, read-out: Replicate_1",5.54%
same,inhibition at 5 µM,"sheet LOPAC_screen_w_protease, LOPAC1280 primary screen with protease, 5 µM compound, replicate 2, read-out: Replicate_2",6.55%
COC[C@H]1OC(=O)c2coc3c2[C@@]1(C)C1=C(C3=O)[C@@H]2CCC(=O)[C@@]2(C)C[C@H]1OC(C)=O [Wortmannin from Penicillium funiculosum],mean,[25],2.471
same,Replicate_1,[26],2.1754
same,Replicate_2,[27],2.767
O=c1c(-c2ccc(O)cc2)coc2cc(O)ccc12 [Daidzein],inhibition at 5 µM,read-out: Replicate_1,5.3%
same,inhibition at 5 µM,read-out: Replicate_2,1.03%
same,inhibition at 5 µM,read-out: mean,3.16%
CC(C)NCC(O)COc1cccc2[nH]ccc12 (stereo not drawn) [Pindolol],inhibition at 5 µM,"sheet LOPAC_screen_w_protease, LOPAC1280 primary screen at 5 µM, with protease, mean of the two replicates, read-out: mean",0.855%
same,inhibition at 5 µM,"sheet LOPAC_screen_w_protease, LOPAC1280 primary screen at 5 µM, with protease, replicate 1, read-out: Replicate_1",0.309%
same,inhibition at 5 µM,"sheet LOPAC_screen_w_protease, LOPAC1280 primary screen at 5 µM, with protease, replicate 2, read-out: Replicate_2",1.4%
O=C(O)C1CCCNC1 (racemic) [(±)-Nipecotic acid],mean,[28],0.4335
same,Replicate_1,[29],0.981
same,Replicate_2,[30],-0.114
Nc1c2c(nc3ccccc13)CCCC2O.O=C(O)/C=C\C(=O)O (stereo not drawn) [Hydroxytacrine maleate],mean,[25],2.348
same,Replicate_1,[26],3.064
same,Replicate_2,[27],1.632
N.N.N.Nc1ncnc2c1ncn2C1OC(COP(=O)(O)OP(=O)(O)OP(=O)(O)OP(=O)(O)OC[C@H]2O[C@@H](n3cnc4c(N)ncnc43)C(O)C2O)[C@@H](O)C1O (stereo in doubt),mean (LOPAC_screen_w_protease),[18],2.093
same,Replicate_1 (LOPAC_screen_w_protease),[16],3.71
same,Replicate_2 (LOPAC_screen_w_protease),[17],0.4753
O=C(CCCN1CCC2(CC1)C(=O)NCN2c1ccccc1)c1ccc(F)cc1 [Spiperone hydrochloride],inhibition at 5 µM,[10],2.31%
same,inhibition at 5 µM,[11],1.15%
same,mean (LOPAC_screen_w_protease),[12],1.727
Fc1ccc(C(c2ccc(F)cc2)N2CCN(C/C=C/c3ccccc3)CC2)cc1 [Flunarizine dihydrochloride],inhibition at 5 µM,[4],2.85%
same,inhibition at 5 µM,[5],3.4%
same,inhibition at 5 µM,[6],2.29%
C1COC(NC(C2CC2)C2CC2)=N1 [Rilmenidine hemifumarate],inhibition at 5 µM,[10],4.65%
same,inhibition at 5 µM,[11],-0.41%
same,mean (LOPAC_screen_w_protease),[18],2.121
CC(=O)SCC[N+](C)(C)C.[Cl-] [Acetylthiocholine chloride],mean,[28],0.4496
same,Replicate_1,[29],1.2654
same,Replicate_2,[30],-0.3662
COc1[nH]c2ccc(F)cc2c1C(=O)OCC1CCN(CCNS(C)(=O)=O)CC1.NS(=O)(=O)O [GR 125487 sulfamate salt],mean,[28],0.6171
same,Replicate_1,[29],2.002
same,Replicate_2,[30],-0.7681
N#Cc1c(-c2ccccc2)no[n+]1[O-] [4-Phenyl-3-furoxancarbonitrile],mean,[13],2.827
same,Replicate_1,[14],3.156
same,Replicate_2,[15],2.497
NCCSSCCN [Cystamine dihydrochloride],inhibition at 5 µM,[7],14.4%
same,inhibition at 5 µM,[8],14.2%
same,inhibition at 5 µM,[9],14.5%
"Br.NC1CCc2cc(O)c(O)cc2C1 (stereo not drawn) [6,7-ADTN hydrobromide]",mean (LOPAC screen with protease),[1],64.0916
same,Replicate_1 (LOPAC screen with protease),[2],63.1732
same,Replicate_2 (LOPAC screen with protease),[3],65.0099
CN1C[C@H](O)[C@@H](O)[C@H](O)[C@H]1CO [N-Methyl-1-deoxynojirimycin],mean,[22],4.2727
same,Replicate_1,[23],3.9484
same,Replicate_2,[24],4.597
CC[C@H](NC(=O)c1c(C)c(-c2ccccc2)nc2ccccc12)c1ccccc1 [SB 222200],inhibition at 5 µM,[10],1.71%
same,inhibition at 5 µM,[11],1.28%
same,mean (LOPAC_screen_w_protease),[12],1.495
COc1ccccc1N1CCNCC1.Cl,mean,"sheet LOPAC_screen_w_protease, LOPAC1280 at 5 µM, mean of two replicates",0.9162
same,Replicate_1,"sheet LOPAC_screen_w_protease, LOPAC1280 at 5 µM, replicate 1",1.248
same,Replicate_2,"sheet LOPAC_screen_w_protease, LOPAC1280 at 5 µM, replicate 2",0.5839
COc1ccc(NC(=O)c2ccc(-c3ccc(-c4noc(C)n4)cc3C)cc2)cc1N1CCN(C)CC1.Cl [GR 127935 hydrochloride],mean,[28],0.6456
same,Replicate_1,[29],0.5978
same,Replicate_2,[30],0.6934
NS(=O)(=O)c1cc2c(cc1Cl)NCNS2(=O)=O [Hydrochlorothiazide],inhibition at 5 µM,"sheet LOPAC_screen_w_protease, primary screen with protease, mean of two replicates, read-out: mean",2.22%
same,inhibition at 5 µM,"sheet LOPAC_screen_w_protease, primary screen with protease, replicate 1, read-out: Replicate_1",3.63%
same,inhibition at 5 µM,"sheet LOPAC_screen_w_protease, primary screen with protease, replicate 2, read-out: Replicate_2",0.799%
COc1ccc2c(c1)c(CC(=O)O)c(C)n2Cc1ccc(Cl)cc1,mean,[19],0.3525
same,Replicate_1,[20],-0.9083
same,Replicate_2,[21],1.613
COc1cc(OC)c(C=C2C(O)=Nc3ccccc32)c(OC)c1 [IC 261],inhibition at 5 µM,[10],1.63%
same,inhibition at 5 µM,[11],1.3%
same,mean (LOPAC_screen_w_protease),[12],1.465
NC(=O)c1cc[n+](CC2=C(C(=O)[O-])N3C(=O)[C@@H](NC(=O)C(c4ccccc4)S(=O)(=O)[O-])[C@H]3SC2)cc1.O.[Na+] (stereo partly drawn) [Cefsulodin sodium salt hydrate],mean,[13],2.816
same,Replicate_1,[14],2.052
same,Replicate_2,[15],3.58
